# Experimental data published in patent US12398107B2, “Fungicidal nitroanilino substituted pyrazoles” (FMC Corporation, priority 2018, dated 2025).
# Key:
# Type in all cases: in vivo
# Septoria tritici = assay: Test A: wheat leaf blotch, preventive spray on wheat seedlings; conditions: 50 ppm, 100 = 100% disease control, 0 = no control relative to controls; for pest or weed control at 50 ppm: Zymoseptoria tritici, read-out: Test A disease control rating (wheat leaf blotch)
# Method in brief: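 Preventive test: seedlings sprayed to run-off one day before Septoria tritici spore inoculation, with ppm doses in acetone/water containing 250 ppm PEG400. After 48 h at 24 °C in saturated air and 17 days at 20 °C, plants were scored 0–100 for disease control versus untreated controls.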
# Phakopsora pachyrhizi = assay: Test D: Asian soybean rust, preventive spray on soybean seedlings; conditions: 50 ppm, 100 = 100% disease control, 0 = no control; for pest or weed control at 50 ppm: Phakopsora pachyrhizi, read-out: Test D disease control rating (Asian soybean rust)
# Method in brief: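 Soybean seedlings sprayed to run-off with compound suspension (ppm, in 50/50 acetone/water with 250 ppm PEG400), inoculated next day with P. pachyrhizi spores, held 24 h saturated at 22°C then 8 days at 22°C. Visual rating 0-100% disease control relative to controls.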
# [1] = test system: Puccinia recondita f. sp. tritici; assay: Test B: wheat leaf rust, preventive spray on wheat seedlings; conditions: 50 ppm, 100 = 100% disease control, 0 = no control relative to controls; for pest or weed control at 50 ppm: read-out: Test B disease control rating (wheat leaf rust)
# Method in brief: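 Wheat seedlings got a run-off spray (ppm, acetone/water 50/50, 250 ppm PEG400) and one day later a spore inoculum. After 24 h at 20° C. in saturated air and 7 days at 20° C., disease was scored as % control relative to controls (100 = full control).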
# [2] = test system: Blumeria graminis f. sp. tritici; assay: Test C: wheat powdery mildew, preventive spray on wheat seedlings; conditions: 50 ppm, rated after 8 days, 100 = 100% disease control, 0 = no control; for pest or weed control at 50 ppm: Blumeria graminis, 192 h, read-out: Test C disease control rating (wheat powdery mildew)
# Method in brief: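 Wheat seedlings got a run-off spray of test suspension (ppm in acetone/water 50/50, 250 ppm PEG400, acetone 3% of volume), then spore-dust inoculation with wheat powdery mildew one day later. After 8 days' growth-chamber incubation at 20° C, disease control scored visually on a 0–100 scale versus untreated controls.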
# Botrytis cinerea = assay: Test E: tomato Botrytis, preventive spray on tomato seedlings; conditions: 50 ppm, 100 = 100% disease control, 0 = no control; for pest or weed control at 50 ppm: Botrytis cinerea, read-out: Test E disease control rating (tomato Botrytis)
# Method in brief: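 Preventive test: spore inoculation one day after run-off spraying of compound suspension (3% acetone, acetone/water 50/50, 250 ppm PEG400). Incubation 20 °C saturated humidity for 48 h, followed by 3 days at 24 °C growth chamber; disease control scored visually, 100 = full control.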
# Alternaria solani = assay: Test F: tomato early blight, preventive spray on tomato seedlings; conditions: 50 ppm, 100 = 100% disease control, 0 = no control; for pest or weed control at 50 ppm: Alternaria solani, read-out: Test F disease control rating (tomato early blight)
# Method in brief: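 Preventive test: one day after seedlings were sprayed to run-off with ppm-level suspensions (acetone/water 50/50, 250 ppm PEG400), A. solani spore inoculation followed. Incubation was 48 h at 27° C in saturated air plus 3 days at 20° C; disease control was scored visually versus controls (100 = full control).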
Compound,Test A disease control rating (wheat leaf blotch) (Septoria tritici),Test D disease control rating (Asian soybean rust) (Phakopsora pachyrhizi),Test B disease control rating (wheat leaf rust) [1],Test C disease control rating (wheat powdery mildew) [2],Test E disease control rating (tomato Botrytis) (Botrytis cinerea),Test F disease control rating (tomato early blight) (Alternaria solani),pest or weed control at 50 ppm (Septoria tritici),pest or weed control at 50 ppm (Phakopsora pachyrhizi),pest or weed control at 50 ppm [1],pest or weed control at 50 ppm [2],pest or weed control at 50 ppm (Botrytis cinerea),pest or weed control at 50 ppm (Alternaria solani)
Cc1nn(C)c(Nc2c(Cl)cc(F)cc2[N+](=O)[O-])c1-c1c(F)cccc1F [Compound 76],100%,25%,99%,95%,87%,0%,,,,,,
COc1ccc(Nc2c(-c3ccc(C#N)cc3F)c(C)nn2C)c([N+](=O)[O-])c1 [Compound 179],100%,0%,96%,93%,99%,85%,,,,,,
Cc1nn(C)c(Nc2c(Cl)cc(F)cc2[N+](=O)[O-])c1-c1ccc(F)cc1Br [Compound 43],100%,65%,100%,97%,96%,64%,,,,,,
Cc1nn(C)c(Nc2ccc(Br)cc2[N+](=O)[O-])c1-c1ccc(F)cc1Br [Compound 21],100%,0%,86%,84%,95%,17%,,,,,,
"COc1ccc(-c2c(C)nn(C)c2Nc2c(Cl)cc(F)cc2[N+](=O)[O-])c(Cl)c1 [Compound 73, N-(2-chloro-4-fluoro-6-nitrophenyl)-4-(2-chloro-4-methoxyphenyl)-1,3-dimethyl-1H-pyrazol-5-amine]",,,,,,,100%,98%,100%,96%,99%,97%
Cc1nn(C)c(Nc2ccc(OC(F)(F)F)cc2[N+](=O)[O-])c1-c1ccc(F)cc1Cl [Compound 94],73%,73%,0%,72%,0%,9%,,,,,,
Cc1nn(C)c(Nc2c(Cl)cccc2[N+](=O)[O-])c1-c1ccc(F)cc1Br [Compound 41],100%,77%,100%,94%,77%,0%,,,,,,
COc1cc(Cl)c(Nc2c(-c3ccc(F)cc3Cl)c(C)nn2C)c([N+](=O)[O-])c1 [Compound 80],100%,50%,100%,97%,95%,98%,,,,,,
Cc1nn(C)c(Nc2ccc(OCC#N)cc2[N+](=O)[O-])c1-c1ccc(F)cc1Cl [Compound 29],97%,81%,98%,87%,99%,26%,,,,,,
Cc1nn(C)c(Nc2c(Cl)cc(Br)cc2[N+](=O)[O-])c1-c1ccc(F)cc1F [Compound 55],100%,0%,99%,90%,34%,0%,,,,,,
Cc1nn(C)c(N(C)c2c(F)cccc2[N+](=O)[O-])c1-c1ccc(F)cc1Cl [Compound 172],,,,,,,100%,0%,100%,100%,99%,40%
Cc1nn(C)c(Nc2c(Cl)cc(Cl)cc2[N+](=O)[O-])c1-c1ccc(F)cc1F [Compound 101],100%,44%,99%,89%,99%,0%,,,,,,
COc1ccc(-c2c(C)nn(C)c2Nc2c(Cl)cc(Cl)cc2[N+](=O)[O-])c(Cl)c1 [Compound 65],94%,66%,89%,56%,16%,46%,,,,,,
Cc1cc(Cl)cc([N+](=O)[O-])c1Nc1c(-c2ccc(F)cc2Cl)c(C)nn1C [Compound 33],100%,92%,100%,99%,99%,85%,,,,,,
Cc1nn(C)c(Nc2c(F)cccc2[N+](=O)[O-])c1-c1c(F)cc(Cl)cc1F [Compound 151],100%,0%,100%,99%,99%,99%,,,,,,
Cc1nn(C)c(Nc2c(F)cc(Br)cc2[N+](=O)[O-])c1-c1ccc(C#N)cc1Cl [Compound 155],99%,0%,99%,90%,100%,93%,,,,,,
COc1ccc(-c2c(C)nn(C)c2Nc2ccc(Cl)cc2[N+](=O)[O-])c(Cl)c1 [Compound 74],99%,74%,86%,81%,99%,85%,,,,,,
Cc1cccc([N+](=O)[O-])c1Nc1c(-c2c(F)cc(F)cc2F)c(C)nn1C [Compound 167],100%,65%,100%,98%,95%,98%,,,,,,
COc1ccc(-c2c(C)nn(C)c2Nc2c(Cl)cccc2[N+](=O)[O-])c(C)c1 [Compound 35],99%,0%,85%,0%,0%,0%,,,,,,
Cc1cc(Cl)c(Nc2c(-c3ccc(C#N)cc3Cl)c(C)nn2C)c([N+](=O)[O-])c1 [Compound 156],91%,0%,91%,66%,0%,0%,,,,,,
COc1ccc(Nc2c(-c3ccc(Cl)cc3Cl)c(C)nn2C)c([N+](=O)[O-])c1 [Compound 142],100%,25%,91%,39%,99%,80%,,,,,,
